Test results reported in patent publication US20060106026A1, “4-(4-methylpiperazin-1-ylmethyl)-n-[4-pyridin-3-yl)pyrimidin-2-ylamino)phenyl]-benzamide for treating anaplastic thyroid cancer” (priority 2002, published 2006).
Values joined by “and” are separate entries in the source; they are usually repeats but may differ in a detail not shown here. Equal entries are not always repeated. Where two headings read alike, the source gives them in different places.

Tests used:
1F3 cell line = settings: IF3 cells, 10 μM of SALT I (data not shown)
KTC-1 = test: Cell growth assay, experiment 1 (cell count kit 48 h; growth curve 5 days); settings: for cell number quantified with a cell count kit (Wako), mean: 48 hour-treatment, no SALT I: 0.413
[1] = system: cell cycle regulatory proteins (p21cip1, p27kip1, cyclin A, B1, CDC2, cyclin D3)
Text: After transfer onto nitrocellulose membranes (Pall Corporation, Ann Arbor, Mich., USA), blots were probed with the appropriate antibodies. β-actin was used as a loading control. The antibodies used were: anti-p21waf1 (Ab-1, Calbiochem, Darmstardt, Germany), anti-p27-8, Santa Cruz Biotechnology, Santa Cruz, Calif., USA), anti-cyclin A (C88020, BD Biosciences, Boston, Mass., USA), anti-cyclin B1 (C23420, BD Biosciences), anti-CDK1/Cdc2 (C12720, BD Biosciences), anti-cyclin D3 (C28620, BD Biosciences), anti-Phospho-c-ABL (Tyr245, Cell Signaling Technology, Beverly, Mass., USA), anti-c-Abl (24-11, Santa Cruz Biotechnology), anti-c-KIT (C-14, Santa Cruz Biotechnology), anti-PDGFRα (C-20, Santa Cruz Biotechnology), anti-PDGFRβ (P-20, Santa Cruz Biotechnology), anti-ERK1/2 (Cell Signalling Technology), anti-p-ERK (Cell Signalling Technology) and anti-Actin (C-11, Santa Cruz Biotechnology). Detection was performed with an enhanced chemiluminescence kit (ECL, Amersham Life Sciences, Buckinghamshire, UK). Immunoblotting experiments were performed at least twice. […] Since p53 status is likely to have some effect on the level of c-Abl protein, the expression level of c-Abl in 1F3 cells was also measured. […] The cyclin-dependent kinase (CDK) inhibitors, p21^cip1 and p27^kip1, can block CDK activity in the S to G2 as well as in the G1 to S phase transition of the cell cycle. […] The activity of CDKs is dependent, in part, on the relative abundance of cyclin subunits and the presence of CDK inhibitors. Among the cyclins and CDKs, cyclin A, B, and CDC2 are involved in the progression from G2 to M phase.

FRO [2] = test: Cell growth assay, experiment 1 (cell count kit 48 h; growth curve 5 days); settings: for cell number quantified with a cell count kit (Wako), mean: 48 hour-treatment, no SALT I: 1.677
ERK1/2 = system: ERK1/2
Description: Abl was immunoprecipitated from cell lysates using the indicated antibody. In vitro kinase assay was performed as described previously (Dorey et al., Oncogene, 2000, […]:8075-84). Radiolabelled GST-Crk was quantified using a PhosphorImager (Molecular Dynamics, Inc., Sunnyvale, Calif., USA). […] Stimulation was with 20% FCS for 8 minutes, cell lysates were collected and subjected to SDS-PAGE and Western blotting carried out using antibodies against ERK1/2 and the phosphorylated form of ERK1/2. […] A common response to extracellular signals such as growth factors is the activation of the mitogen-activated protein (MAP) kinase cascade.

ARO [3] = settings: 10 μM of SALT I
Description: (§1) For flow cytometry analysis, cells were fixed with 70% ethanol and wash with PBS. After pre-incubation with RNase A (0.1 mg per ml) at room temperature, cells were stained with PI (25 μg per ml). Fluorescence was measured by using FACScan flow cytometer (Becton Dickinson, Mountain View, Calif.). This experiment was performed at least three times.

FRO [4] = settings: 10 μM of SALT I, 48 hours
Description: as §1

[5] = system: Refractory Progressive Thyroid Carcinoma; settings: SALT I without any other therapy; rapid growth and invasion during the previous year
Description: This clinical study is part of the Phase I/II clinical study which is exploratory in nature.
When any mild adverse effect occurs, the dose is decreased to 200 mg once daily depending on the degree of the adverse effect. […] In principle, where the tumor size is reduced by half, the dose is increased up to 800 mg/day and continued for a maximum of six months. […] No concomitant use of an anticancer drug is permitted in principle. Drugs that relieve other conditions or symptoms may be used concomitantly with caution exercised for their adverse effects.

FRO cells = settings: single daily administration of 50 mg/kg over 14 consecutive days, i.p.
Description: Mouse xenograft model. All mice were maintained in the Nagasaki University (Nagasaki, Japan) animal facility and all animal experiments described in this study were conducted in accordance with the principles and procedures outlined in the Guide for the Care and Use of Laboratory Animals of the Nagasaki University School of Medicine. Five million FRO cells suspended in RPMI 1640 were injected s.c. into the flanks of 8-week-old female BalB/c nu/nu mice (Charles-River Japan, Tokyo, Japan). Tumor sizes were measured every other day with calipers and tumor volumes were calculated according to the formula: a^2×b×0.4 where a is the smallest diameter and b is the diameter perpendicular to a. […] Mice in the control group received injections of pure water. The body weight feeding behavior and motor activity of each animal were monitored as indicators of general health.
Statistical analysis: Data are presented as mean ±SD unless otherwise specified. Student's t-test and Mann Whitney U test were used for comparison between two groups for parametric and nonparametric data, respectively. A p value <0.05 is considered statistically significant.

ARO [6] = test: Cell growth assay, experiment 1 (cell count kit 48 h; growth curve 5 days); settings: for cell number quantified with a cell count kit (Wako), mean: 48 hour-treatment, no SALT I: 0.959

Structure (SMILES): CS(=O)(=O)O.Cc1ccc(NC(=O)c2ccc(CN3CCN(C)CC3)cc2)cc1Nc1nccc(-c2cccnc2)n1 [SALT I]
- cell growth curve on a 5 day period (1F3 cell line): do not change the cell growth
- growth suppression, dose dependence (KTC-1; KTC-1 (wild type p53), lower than 50 μM, 48 h): do not
- cell growth curve on a 5 day period (KTC-1; KTC-1, 10 μM of SALT I (data not shown)): do not change the cell growth
- cell death (KTC-1; KTC-1, 50 μM of SALT I, 48 h): died
- cell number quantified with a cell count kit (Wako), mean (KTC-1; KTC-1, SALT I 1 μM): 0.403
- cell number quantified with a cell count kit (Wako), mean (KTC-1; KTC-1, SALT I 10 μM): 0.379
- cell number quantified with a cell count kit (Wako), mean (KTC-1; KTC-1, SALT I 50 μM): 0.064
- Expression of p2^cip1 [1]: markedly increased
- Expression of p27^kip1 [1]: increased
- levels of cyclin A, B1 and CDC2 ([1]; ARO and FRO cell lines, 10 μM of SALT I, 24 hours): reduced
- level of cyclin D3 ([1]; ARO cells, 10 μM of SALT I, 24 hours): reduced
- Expression of p2^cip1 ([1]; ARO, KTC-1 and 1F3 cells, 10 μM of SALT I): did not change
- levels of cyclin A, B1, CDC2 and cyclin D3 ([1]; KTC-1 and 1F3, 10 μM of SALT I, 24 hours): had no effect
- growth suppression, dose dependence (FRO [2]; FRO (undetectable p53), lower than 50 μM, 48 h): show growth suppression in SALT I dose dependent manner
- cell growth curve on a 5 day period (FRO [2]; FRO, 10 μM of SALT I, compared to control cells): time-dependent reduction of cell growth
- cell death (FRO [2]; FRO, 50 μM of SALT I, 48 h): died
- cell number quantified with a cell count kit (Wako), mean (FRO [2]; FRO, SALT I 1 μM): 1.414
- cell number quantified with a cell count kit (Wako), mean (FRO [2]; FRO, SALT I 10 μM): 1.192
- cell number quantified with a cell count kit (Wako), mean (FRO [2]; FRO, SALT I 50 μM): 0.228
- phosphorylation of ERK1/2 in response to serum stimulation (ERK1/2): had no effect on its phosphorylation
- level of p-ERK1/2 (ERK1/2; ARO and FRO, 10 μM SALT I for two hours, 20% FCS for 8 minutes): did not affect
- increase of the proportion of cells in G2/M-phase versus DMSO (ARO [3]; 48 hours (9.28% vs. 3.78%)): increased more then two-fold
- percentage of cells in G2-M phase (ARO [3]; 48 hours, DMSO 3.8): 9.28% and 9.3%
- percentage of cells in S phase (ARO [3]; 48 hours, DMSO 19.7): 13.1%
- percentage of cells in G1 phase (ARO [3]; 48 hours, DMSO 76.6): 77.6%
- effect on cell cycle (arrest) (FRO [4]): S-phase arrest
- percentage of cells in G2-M phase (FRO [4]; DMSO 24.95): 15% and 14.98%
- percentage of cells in G1 phase (FRO [4]; DMSO 32.16): 30.91%
- percentage of cells in S phase (FRO [4]; DMSO 43.26): 54% and 54.11%
- tumor growth in first patient (preliminary results) [5]: stopped their growth for 3 months
- anti-tumor effect (FRO cells): strong anti-tumor effect
- growth suppression, dose dependence (ARO [6]; ARO (mutant p53), lower than 50 μM, 48 h): show growth suppression in SALT I dose dependent manner
- cell growth curve on a 5 day period (ARO [6]; ARO, 10 μM of SALT I, compared to control cells): time-dependent reduction of cell growth
- cell death (ARO [6]; ARO, 50 μM of SALT I, 48 h): died
- cell number quantified with a cell count kit (Wako), mean (ARO [6]; ARO, SALT I 1 μM): 0.785
- cell number quantified with a cell count kit (Wako), mean (ARO [6]; ARO, SALT I 10 μM): 0.539
- cell number quantified with a cell count kit (Wako), mean (ARO [6]; ARO, SALT I 50 μM): 0.096
